ChEMBL document CHEMBL3046404, “The cytotoxic effects of diketopiperaizes against Leishmania donovani promastigotes and amastigotes” (Med Chem Res, 2013)
In brackets after ≈: the same amount, converted by molar mass.

Experiments:
Leishmania donovani [1] = experiment: Antileishmanial activity against promastigote form of Leishmania donovani MHOH/IN/1983/AG83 infected BALB/c mouse assessed as spleen weight at 10 mg/kg, ip administered 1 month post-infection 2 times per week for 30 days (reference value: 509 +/- 25 mg); format: functional; details: route intraperitoneal
Leishmania donovani [2] = experiment: Antileishmanial activity against promastigote form of Leishmania donovani MHOH/IN/1983/AG83 infected BALB/c mouse assessed as liver weight at 10 mg/kg, ip administered 1 month post-infection 2 times per week for 30 days (reference value: 1,746 +/- 56 mg); format: functional; details: route intraperitoneal
Leishmania donovani [3] = experiment: microbe, parasite or virus in culture; details: MHOH/IN/1983/AG83, 48 h
Description: Antileishmanial activity against amastigote form of Leishmania donovani MHOH/IN/1983/AG83 infected BALB/c mouse peritoneal macrophages after 48 hr by Geimsa staining method

Mus musculus [4] = experiment: Toxicity against BALB/c Mus musculus (mouse) assessed as SGPT level at 10 mg/kg, ip administered 2 times per week for 30 days (reference value: 28 +/- 5 IU/l); format: organism-based; set-up: dose 10 mg/kg, route intraperitoneal; details: in vivo, 720 h
[5] = Toxicity against BALB/c Mus musculus (mouse) peritoneal macrophages assessed as concentration required for cell lysis after 48 hr; format: cell-based, Peritoneal macrophage cell; details: read-out: Activity
Leishmania donovani [6] = experiment: Antileishmanial activity against promastigote form of Leishmania donovani MHOH/IN/1983/AG83 after 2 hr by MTT assay; format: functional, organism-based
Mus musculus [7] = experiment: Toxicity against BALB/c Mus musculus (mouse) assessed as SGOT level at 10 mg/kg, ip administered 2 times per week for 30 days (reference value: 71 +/- 4 IU/l); format: organism-based; set-up: dose 10 mg/kg, route intraperitoneal; details: in vivo, 720 h
Mus musculus [8] = experiment: Toxicity against BALB/c Mus musculus (mouse) assessed as blood urea level at 10 mg/kg, ip administered 2 times per week for 30 days (reference value: 29 +/- 6 mg/dl); format: organism-based; set-up: dose 10 mg/kg, route intraperitoneal; details: in vivo, 720 h
Leishmania donovani [9] = experiment: Antileishmanial activity against promastigote form of Leishmania donovani MHOH/IN/1983/AG83 infected in BALB/c mouse assessed as reduction in parasite burden in spleen at 10 mg/kg, i.p. administered 1 month post-infection 2 times per week for 30 days relative to control; format: functional; set-up: scale not given: the % may be the effect or the level left; details: route intraperitoneal
Leishmania donovani [10] = experiment: Antileishmanial activity against amastigote form of Leishmania donovani MHOH/IN/1983/AG83 infected BALB/c mouse peritoneal macrophages at 10 ug/ml after 48 hr by Geimsa staining method relative to control; format: functional
Leishmania donovani [11] = experiment: Antileishmanial activity against promastigote form of Leishmania donovani MHOH/IN/1983/AG83 infected in BALB/c mouse assessed as reduction in parasite burden in liver at 10 mg/kg, ip administered 1 month post-infection 2 times per week for 30 days relative to control; format: functional; set-up: scale not given: the % may be the effect or the level left; details: route intraperitoneal
Mus musculus [12] = experiment: Toxicity against BALB/c Mus musculus (mouse) assessed as blood urea level at 4 mg/kg, ip administered 2 times per week for 30 days (reference value: 29 +/- 6 mg/dl); format: organism-based; set-up: dose 4 mg/kg, route intraperitoneal; details: in vivo, 720 h
Leishmania donovani [13] = experiment: Antileishmanial activity against promastigote form of Leishmania donovani MHOH/IN/1983/AG83 infected in BALB/c mouse assessed as reduction in parasite burden in spleen at 4.5 mg/kg, i.p. administered 1 month post-infection 2 times per week for 30 days relative to control; format: functional; set-up: scale not given: the % may be the effect or the level left; details: route intraperitoneal
Leishmania donovani [14] = experiment: Antileishmanial activity against promastigote form of Leishmania donovani MHOH/IN/1983/AG83 infected BALB/c mouse assessed as liver weight at 4 mg/kg, ip administered 1 month post-infection 2 times per week for 30 days (reference value: 1,746 +/- 56 mg); format: functional; details: route intraperitoneal
Leishmania donovani [15] = experiment: Antileishmanial activity against promastigote form of Leishmania donovani MHOH/IN/1983/AG83 infected BALB/c mouse assessed as spleen weight at 4 mg/kg, ip administered 1 month post-infection 2 times per week for 30 days (reference value: 509 +/- 25 mg); format: functional; details: route intraperitoneal
Mus musculus [16] = experiment: Toxicity against BALB/c Mus musculus (mouse) assessed as SGOT level at 4 mg/kg, ip administered 2 times per week for 30 days (reference value: 71 +/- 4 IU/l); format: organism-based; set-up: dose 4 mg/kg, route intraperitoneal; details: in vivo, 720 h
Mus musculus [17] = experiment: Toxicity against BALB/c Mus musculus (mouse) assessed as SGPT level at 4 mg/kg, ip administered 2 times per week for 30 days (reference value: 28 +/- 5 IU/l); format: organism-based; set-up: dose 4 mg/kg, route intraperitoneal; details: in vivo, 720 h
Leishmania donovani [18] = experiment: Antileishmanial activity against promastigote form of Leishmania donovani MHOH/IN/1983/AG83 infected BALB/c mouse assessed as reduction in parasite burden in liver at 4.5 mg/kg, ip administered 1 month post-infection 2 times per week for 30 days relative to control; format: functional; set-up: scale not given: the % may be the effect or the level left; details: route intraperitoneal
Leishmania donovani [19] = experiment: Antileishmanial activity against promastigote form of Leishmania donovani MHOH/IN/1983/AG83 infected BALB/c mouse assessed as reduction in parasite burden in spleen at 250 mg/kg, ip administered 1 month post-infection 2 times per week for 30 days relative to control; format: functional, organism-based; set-up: dose 250 mg/kg; scale not given: the % may be the effect or the level left
Leishmania donovani [20] = experiment: Antileishmanial activity against promastigote form of Leishmania donovani MHOH/IN/1983/AG83 infected BALB/c mouse assessed as liver weight at 250 mg/kg, ip administered 1 month post-infection 2 times per week for 30 days (reference value: 1,746 +/- 56 mg); format: functional, organism-based; set-up: dose 250 mg/kg
Leishmania donovani [21] = experiment: Antileishmanial activity against promastigote form of Leishmania donovani MHOH/IN/1983/AG83 infected BALB/c mouse assessed as spleen weight at 250 mg/kg, ip administered 1 month post-infection 2 times per week for 30 days (reference value: 509 +/- 25 mg); format: functional, organism-based; set-up: dose 250 mg/kg
Leishmania donovani [22] = experiment: Antileishmanial activity against promastigote form of Leishmania donovani MHOH/IN/1983/AG83 infected BALB/c mouse assessed as reduction in parasite burden in liver at 250 mg/kg, ip administered 1 month post-infection 2 times per week for 30 days relative to control; format: functional, organism-based; set-up: dose 250 mg/kg; scale not given: the % may be the effect or the level left
[23] = Leishmania donovani, MHOH/IN/1983/AG83, 2 h, read-out: IC50

| Compound | Activity (Leishmania donovani [1]) [mg] | IC50 (Leishmania donovani [3]) [µg/mL] | Activity (Mus musculus [4]) [IU/L] | MCC at 48 h [5] [µg/mL] | IC50 (Leishmania donovani [6]; [23]) [µg/mL] | Activity (Mus musculus [7]) [IU/L] | Activity (Mus musculus [8]) [mg/dL] | also measured |
| --- | --- | --- | --- | --- | --- | --- | --- | --- |
| O=C1CN(c2ccccc2)C(=O)CN1c1ccccc1 | 166 | 1.6 (≈ 6.01 µM) | 34 | > 30 | 1.4 (≈ 5.26 µM) | 74 | 32 | Activity (Leishmania donovani [2]): 999 mg |
| CC(=O)c1cccc(N2CC(=O)N(c3cccc(C(C)=O)c3)CC2=O)c1 |  | 2 (≈ 5.71 µM) |  | > 50 | 3.4 (≈ 9.7 µM) |  |  |  |
| O=C1CN(C2CCCCC2)C(=O)CN1C1CCCCC1 | 139 | 1.1 (≈ 3.95 µM) | 30 | > 50 | 0.7 (≈ 2.51 µM) | 73 | 31 | Activity (Leishmania donovani [2]): 1076 mg; Activity (Leishmania donovani [9]): 80.95%; Activity (Leishmania donovani [10]): 84.66%; Activity (Leishmania donovani [11]): 81.74% |
| O=C1CN(c2cccc(Cl)c2)C(=O)CN1c1cccc(Cl)c1 | 87 | 0.53 (≈ 1.58 µM) | 28 | > 25 | 1 (≈ 2.98 µM) | 67 | 29 | Activity (Mus musculus [12]): 28 mg/dL; Activity (Leishmania donovani [9]): 91.35%; Activity (Leishmania donovani [13]): 67.97%; Activity (Leishmania donovani [10]): 92.19%; Activity (Leishmania donovani [14]): 1134 mg; Activity (Leishmania donovani [15]): 155 mg; Activity (Leishmania donovani [11]): 94.75%; Activity (Mus musculus [16]): 69 IU/L; Activity (Mus musculus [17]): 29 IU/L; Activity (Leishmania donovani [18]): 69.73% |
| SODIUM ANTIMONY GLUCONATE |  |  |  |  |  |  |  | Activity (Leishmania donovani [19]): 60.2%; Activity (Leishmania donovani [20]): 1320 mg; Activity (Leishmania donovani [21]): 303 mg; Activity (Leishmania donovani [22]): 57.7% |
| COc1ccc(N2CC(=O)N(c3ccc(OC)cc3)CC2=O)cc1 |  | 2.2 (≈ 6.74 µM) |  | > 60 | 21.8 (≈ 66.8 µM) |  |  |  |
| O=C1CN(c2ccc(Cl)cc2Cl)C(=O)CN1c1ccc(Cl)cc1Cl |  | 6.4 (≈ 15.8 µM) |  | > 35 | 2.9 (≈ 7.18 µM) |  |  |  |
| O=C1CN(c2cccc(Cl)c2Cl)C(=O)CN1c1cccc(Cl)c1Cl |  | 4.3 (≈ 10.6 µM) |  | > 50 | 2.2 (≈ 5.44 µM) |  |  |  |
| Cc1ccc(N2CC(=O)N(c3ccc(C)cc3)CC2=O)cc1 | 184 | 1.8 (≈ 6.12 µM) | 33 | > 40 | 1.1 (≈ 3.74 µM) | 75 | 34 | Activity (Leishmania donovani [2]): 1127 mg |
| O=C1CN(c2cc(Cl)ccc2Cl)C(=O)CN1c1cc(Cl)ccc1Cl |  | 6.6 (≈ 16.3 µM) |  | > 60 | 2.6 (≈ 6.43 µM) |  |  |  |
| C[C@@H]1[C@H](O)[C@@H](C)/C=C/C=C/C=C/C=C/C=C/C=C/C=C/[C@H](O[C@@H]2O[C@H](C)[C@@H](O)[C@H](N)[C@@H]2O)C[C@@H]2O[C@](O)(C[C@@H](O)C[C@@H](O)[C@H](O)CC[C@@H](O)C[C@@H](O)CC(=O)O[C@H]1C)C[C@H](O)[C@H]2C(=O)O [AMPHOTERICIN B] |  | 0.1 (≈ 0.108 µM) |  | > 4 |  |  |  |  |
| N=C(N)c1ccc(OCCCCCOc2ccc(C(=N)N)cc2)cc1 [PENTAMIDINE] |  | 2.8 (≈ 8.22 µM) |  | > 90 | 2.1 (≈ 6.17 µM) |  |  |  |
| O=C1CN(c2c(Cl)cc(Cl)cc2Cl)C(=O)CN1c1c(Cl)cc(Cl)cc1Cl |  | > 10 |  | > 70 | 9.4 (≈ 19.9 µM) |  |  |  |
| COc1ccc(Cl)cc1N1CC(=O)N(c2cc(Cl)ccc2OC)CC1=O |  |  |  | > 100 |  |  |  | IC50 (Leishmania donovani [6]): Not Active |
| O=C1CN(c2ccccc2Cl)C(=O)CN1c1ccccc1Cl | 106 | 0.61 (≈ 1.82 µM) | 28 | > 25 | 1.02 (≈ 3.04 µM) | 72 | 30 | Activity (Leishmania donovani [2]): 976 mg; Activity (Leishmania donovani [9]): 71.81%; Activity (Leishmania donovani [10]): 92%; Activity (Leishmania donovani [11]): 80.37% |
